PMC3853197 (PLoS ONE, 2013)
Like-named read-outs stand apart in the source and are kept apart here.

Tests used:
F. graminearum PH-1 = format: cell-based, Fusarium graminearum
[1] = test system: F. graminearum conidia and hyphae; format: cell-based, Fusarium graminearum

Substance | IC100: amount of protein required to inhibit F. graminearum conidial germination completely (F. graminearum PH-1) [µM] | antifungal activity of labeled compared with untagged/unlabeled protein or peptide (F. graminearum PH-1) | antifungal activity (F. graminearum PH-1; 24 µM) | entry into fungal cells [1] | antifungal activity (F. graminearum PH-1; 96 µM) | antifungal activity compared with TMR-GMA4-C (F. graminearum PH-1; 16 h) | binding to the surface of fungal hyphae [1]
RTCENLADKYRGPCFSGCDTHCTTKENAVSGRCRDDFRCWCTKRC [MsDef1, reference compound] | >6 |  |  |  |  |  | 
TAM-GRCRGFRRRCFCTTHC [TMR-GMA4-C] | 48 | considerably less antifungal activity | significant growth inhibition | entered the cytoplasm |  |  | 
TAM-GRCAAAARRCFCTTHC [TMR-GMA4-CM] | >96 |  |  | no indication of entry into fungal cells | no antifungal activity | significantly lower antifungal activity | failed to bind
GRCRGFRRRCFCTTHC [GMA4-C] | < 6 |  |  |  |  |  | 
